Test results as given in US6653478B2, “Substituted benzimidazol-2-ones as vasopressin receptor antagonists and neuropeptide Y modulators” (Ortho-McNeil Pharmaceutical, Inc., priority 2000, dated 2003).

Columns and labels:
human V2 receptor = human V2 receptor (Homo sapiens, UniProt P30518); assay: V2 binding assay (3H-AVP displacement, HEK-293 membranes); parameters: expressed in transfected cells; host or cells: HEK-293 (membranes); settings: 1.0 μM compound; for inhibition at 1 µM: read-out: V2@1.0, % Inh
In short: (§1)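 Membranes from transfected HEK-293 cells incubated 1 h at room temperature with ³H-AVP (10,000 cpm) in 50 mM Tris, 5 mM MgCl2, 0.1% BSA, pH 7.5 plus protease inhibitors. Non-specific binding set with 1.25 μM AVP. Bound tracer collected on PEI-soaked GF/C filters and counted by scintillation.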

human V1b receptor = target: T1, human V1b receptor (Homo sapiens, UniProt P47901); assay: V1b binding assay (3H-AVP displacement, HEK-293 membranes); parameters: expressed in transfected cells; host or cells: HEK-293 (membranes); settings: for inhibition at 1 µM: 1.0 μM compound, read-out: V1b@1.0, % Inh; for inhibition at 10 µM: read-out: V1b % Inh @10
T1 sequence (P47901 1-424): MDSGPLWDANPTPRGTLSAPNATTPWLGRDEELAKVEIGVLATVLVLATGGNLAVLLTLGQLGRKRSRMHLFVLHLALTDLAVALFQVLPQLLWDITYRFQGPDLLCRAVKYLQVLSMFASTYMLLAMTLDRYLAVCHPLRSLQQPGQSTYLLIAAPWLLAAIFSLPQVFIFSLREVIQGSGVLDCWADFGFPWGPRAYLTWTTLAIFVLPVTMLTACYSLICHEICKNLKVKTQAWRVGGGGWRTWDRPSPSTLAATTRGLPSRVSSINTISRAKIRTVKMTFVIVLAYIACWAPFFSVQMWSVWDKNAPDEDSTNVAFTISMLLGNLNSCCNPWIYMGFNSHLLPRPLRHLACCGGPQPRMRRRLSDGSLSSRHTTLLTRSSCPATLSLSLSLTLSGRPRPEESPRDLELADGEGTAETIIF
In short: as §1

NPY2 receptors = target: T2, NPY2 receptors (Homo sapiens, UniProt P49146); assay: Neuropeptide Y receptor binding assay (125I-PYY, KAN-TS cell membranes); settings: 10 μM compound; for inhibition at 10 µM: read-out: NPY-2@10, % Inh
T2 construct: Cell Membranes from KAN-TS cells having NPY2 receptors; endogenous in cells; host or cells: KAN-TS cells (membranes)
T2 sequence (P49146 1-381): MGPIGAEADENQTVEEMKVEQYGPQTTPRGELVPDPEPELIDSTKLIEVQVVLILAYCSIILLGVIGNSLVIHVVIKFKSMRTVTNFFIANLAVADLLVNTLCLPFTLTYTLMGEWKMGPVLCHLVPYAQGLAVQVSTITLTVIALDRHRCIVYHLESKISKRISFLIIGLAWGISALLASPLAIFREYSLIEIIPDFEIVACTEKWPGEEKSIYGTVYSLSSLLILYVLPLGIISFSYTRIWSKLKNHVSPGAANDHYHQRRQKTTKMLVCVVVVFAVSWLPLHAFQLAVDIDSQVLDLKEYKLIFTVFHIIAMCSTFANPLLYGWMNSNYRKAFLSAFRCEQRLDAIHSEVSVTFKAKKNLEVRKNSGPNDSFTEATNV
In short: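 Membranes from KAN-TS cells competed with 125I-PYY in binding buffer containing BSA, test compound at 10 μM final, 1 hr at room temperature. Nonspecific binding defined with 1 μM PYY final. Tubes centrifuged, washed with PBS and bound radioactivity gamma-counted.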

human V1a receptor = human V1a receptor (Homo sapiens, UniProt P37288); assay: V1a binding assay (3H-AVP displacement, HEK-293 membranes); parameters: expressed in transfected cells; host or cells: HEK-293 (membranes); settings: for inhibition at 1 µM: read-out: V1a@1.0, % Inh
In short: as §1

Sequence of human V1a receptor (P37288 whole entry): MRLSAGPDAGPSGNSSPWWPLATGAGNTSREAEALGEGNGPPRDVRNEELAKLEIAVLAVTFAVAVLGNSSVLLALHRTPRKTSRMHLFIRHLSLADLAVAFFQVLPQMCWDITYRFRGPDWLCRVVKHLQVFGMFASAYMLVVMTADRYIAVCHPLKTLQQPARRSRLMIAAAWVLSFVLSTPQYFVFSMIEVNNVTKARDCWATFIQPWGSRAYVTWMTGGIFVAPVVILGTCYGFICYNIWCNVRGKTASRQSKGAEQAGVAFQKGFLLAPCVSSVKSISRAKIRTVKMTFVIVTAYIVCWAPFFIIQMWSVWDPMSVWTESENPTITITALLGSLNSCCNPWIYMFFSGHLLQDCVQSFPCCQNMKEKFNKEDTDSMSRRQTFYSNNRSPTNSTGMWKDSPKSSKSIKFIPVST
Sequence of human V2 receptor (P30518 whole entry): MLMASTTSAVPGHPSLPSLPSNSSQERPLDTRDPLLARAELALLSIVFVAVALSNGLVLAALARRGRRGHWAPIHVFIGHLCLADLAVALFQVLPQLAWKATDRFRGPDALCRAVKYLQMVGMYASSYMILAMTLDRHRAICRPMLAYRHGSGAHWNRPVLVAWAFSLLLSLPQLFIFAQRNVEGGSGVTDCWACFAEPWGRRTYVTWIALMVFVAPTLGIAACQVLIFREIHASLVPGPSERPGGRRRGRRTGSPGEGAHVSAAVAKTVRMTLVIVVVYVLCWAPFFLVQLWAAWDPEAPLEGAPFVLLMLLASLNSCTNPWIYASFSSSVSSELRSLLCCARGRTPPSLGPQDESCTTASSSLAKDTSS

| Structure (SMILES) | inhibition at 1 µM (human V2 receptor) [%] | inhibition at 1 µM (human V1b receptor) [%] | inhibition at 10 µM (NPY2 receptors) [%] | inhibition at 1 µM (human V1a receptor; 1.0 μM compound) [%] | IC50 (human V1b receptor) [nM] | IC50 (human V1a receptor) [nM] | inhibition at 10 µM (human V1b receptor; 10 μM compound) [%] | V2@1.0, % Inh (human V2 receptor) [%] | V1b % Inh @10 (human V1b receptor; 10 μM compound) [%@10] | NPY-2@10, % Inh (NPY2 receptors) [%] | V1a@1.0, % Inh (human V1a receptor; 1.0 μM compound) [%] |
| --- | --- | --- | --- | --- | --- | --- | --- | --- | --- | --- | --- |
| O=c1n(CCCN2CCCCC2)c2ccccc2n1C1CCN(C(=S)Nc2ccccc2F)CC1 [Compound 115, 1-[(N1-piperidinocarbonthioyl-2-fluorophenylamino)-4-yl]-3-(3-N-piperidinylpropyl)-1,3-dihydrobenzimidazol-2-one] | 11 | 20 | 26 | 13 | – | – | – | – | – | – | – |
| COC(=O)C(Cc1ccccc1)NC(=S)N1CCC(n2c(=O)n(CCCN3CCCC3)c3ccccc32)CC1 [Compound 86, 1-[(N1-Piperidinocarbothioyl-(2-phenyl-1-L-carboxymethyl)amino-4-yl)-4-yl]-3-(3-pyrrolidinylpropyl)-1,3-dihydrobenzimidazol-2-one] | 3 | – | 10 | – | 1190 | 13 | – | – | – | – | – |
| O=c1n(CCCO)c2ccccc2n1C1CCN(C(=S)NC(c2ccccc2)c2ccccc2)CC1 [Compound 108, 1-[(N1-piperidinocarbothioylbiphenylmethylamino)-4-yl]-3-(3-hydroxypropyl)-1,3-dihydrobenzimidazol-2-one] | 16 | 37 | 41 | – | – | 579 | – | – | – | – | – |
| NCCCn1c(=O)n(C2CCN(C(=O)NC(c3ccccc3)c3ccccc3)CC2)c2ccccc21 [Compound 77, 1-[(N1-Piperidinocarbonyldiphenylmethylamino)-4-yl]-3-(3-aminopropyl)-1,3-dihydrobenzimidazol-2-one] | 0 | – | 10 | – | – | 79 | 30 | – | – | – | – |
| CN(C)CCCn1c(=O)n(C2CCN(C(=S)NC(c3ccccc3)c3ccccc3)CC2)c2ccccc21 [Compound 71, 1-[(N1-piperidinocarbothioylbenzhydrylamino)-4-yl]-3-(3-N,N-dimethylaminopropyl)-1,3-dihydrobenzimidazol-2-one] | 0 | – | 79 | – | 870 | 29 | 88 | – | – | – | – |
| COc1ccccc1NC(=S)N1CCC(n2c(=O)[nH]c3ccccc32)CC1 [Compound 4, 1-[N1-Piperidinocarbothioyl-(2-methoxyphenyl)amino-4-yl]-1,3-dihydro-benzimidazol-2-one] | – | – | – | – | – | – | – | 0 | 0 | 6 | 0 |
| CCN(CC)CCn1c(=O)n(C2CCN(C(=O)NC(c3ccccc3)c3ccccc3)CC2)c2ccccc21 [Compound 91, 1-(N1-Piperidinocarbonyldiphenylmethylamino-4-yl)-3-(2-N,N-diethyaminoethyl)benzimidazol-2-one] | 0 | 24 | 56 | 64 | – | – | – | – | – | – | – |
| CN1CCN(CCCn2c(=O)n(C3CCN(C(=O)NC(c4ccccc4)c4ccccc4)CC3)c3ccccc32)CC1 [Compound 100, 1-[(N1-piperidinocarbonylbiphenylmethylamino)-4-yl]-3-(3-N-(N-Methylpiperazino)propyl)-1,3-dihydrobenzimidazol-2-one] | 24 | 36 | 6 | – | – | 283 | – | – | – | – | – |
| O=c1[nH]c2ccccc2n1C1CCN(C(=S)NCc2ccc(Cl)cc2)CC1 [Compound 28] | 0 | – | 24 | 22 | – | – | 3 | – | – | – | – |
| Cc1ccccc1NC(=O)N1CCC(n2c(=O)n(CCCN3CCCCC3)c3ccccc32)CC1 [Compound 110, 1-[(N1-piperidinocarbonyl-2-methylphenylamino)-4-yl]-3-(3-N-piperidinylpropyl)-1,3-dihydrobenzimidazol-2-one] | 2 | 19 | 0 | 41 | – | – | – | – | – | – | – |
| COC(=O)[C@@H](Cc1ccccc1)NC(=S)N1CCC(n2c(=O)[nH]c3ccccc32)CC1 [Compound 51] | 1 | – | 2 | 25 | – | – | 19 | – | – | – | – |
| O=c1n(Cc2ccccc2)c2ccccc2n1C1CCN(C(=S)NC(c2ccccc2)c2ccccc2)CC1 [Compound 37, 1-(N1-Piperidinocarbothioyldiphenylmethylamino-4-yl)-3-benzyl-1,3-dihydrobenzimidazol benzimidazol-2-one] | 2 | – | 0 | 5 | – | – | 8 | – | – | – | – |
| CCN(CC)CCn1c(=O)n(C2CCN(C(=O)Nc3ccccc3C)CC2)c2ccccc21 [Compound 92, 1-[(N1-Piperidinocarbonyl-2-methylphenylamino)-4-yl]-3-(2-N,Ndiethylaminoethyl)-1,3-dihydrobenzimidazol-2-one] | 3 | 5 | 0 | 3 | – | – | – | – | – | – | – |
| O=c1n(CCCN2CCCCC2)c2ccccc2n1C1CCN(C(=S)NCC(c2ccccc2)c2ccccc2)CC1 [Compound 118, 1-[(N1-piperidinocarbothioyl-2,2-diphenylethylamino)-4-yl]-3-(3-N-piperidinylpropyl)-1,3-dihydrobenzimidazol-2-one] | 21 | 55 | 52 | 94 | – | – | – | – | – | – | – |
| O=C(NCc1ccccc1)N1CCC(n2c(=O)n(CCCN3CCCCC3)c3ccccc32)CC1 [Compound 106, 1-[(N1-piperidinocarbonybenzylamino)-4-yl]-3-(3-N-piperidinylpropyl)-1,3-dihydrobenzimidazol-2-one] | 2 | 32 | 0 | 56 | – | – | – | – | – | – | – |
| CCN(CC)CCn1c(=O)n(C2CCN(C(=S)NC(Cc3ccccc3)C(=O)O)CC2)c2ccccc21 [Compound 43, 1-(N1-Piperidinocarbothioyl-(2-phenyl-1-L-carboxy)amino-4-yl)-3-(2-diethyaminoethyl)-1,3-dihydrobenzimidazol-2-one] | 10 | – | 13 | 39 | – | – | 16 | – | – | – | – |
| Cc1ccccc1NC(=O)N1CCC(n2c(=O)[nH]c3ccccc32)CC1 [Compound 48] | 0 | – | 22 | 2 | – | – | 3 | – | – | – | – |
| CCOC(=O)CCn1c(=O)n(C2CCN(C(=S)NC(c3ccccc3)c3ccccc3)CC2)c2ccccc21 [Compound 60, 1-[(N1-Piperidinocarbothioyldiphenylmethylamino)-4-yl]-3-(2-carboethoxyethyl)-1,3-dihydro-benzimidazol-2-one] | 0 | – | 35 | 49 | – | – | 19 | – | – | – | – |
| CCCc1ccccc1NC(=O)N1CCC(n2c(=O)n(CCCN3CCCCC3)c3ccccc32)CC1 [Compound 117, 1-[(N1-piperidinocarbonyl-2-propylphenylamino)-4-yl]-3-(3-N-piperidinylpropyl)-1,3-dihydrobenzimidazol-2-one] | 15 | 43 | 1 | 68 | – | 331 | – | – | – | – | – |
| O=c1[nH]c2ccccc2n1C1CCN(C(=S)NCCc2ccc([N+](=O)[O-])cc2)CC1 [Compound 31] | 15 | – | 17 | 19 | – | – | 5 | – | – | – | – |
| COc1ccccc1NC(=S)N1CCC(n2c(=O)n(CCCN3CCCCC3)c3ccccc32)CC1 [Compound 119, 1-[(N1-piperidinocarbothioyl-2-methoxyphenylamino)-4-yl]-3-(3-N-piperidinylpropyl)-1,3-dihydrobenzimidazol-2-one] | 19 | 29 | 13 | 48 | – | 61 | – | – | – | – | – |
